According to patent publication US9789096B2, “Methods and compositions for selective and targeted cancer therapy” (Board of Regents of the University of Texas System, priority 2013, dated 2017):

system: H1819; test: Cell viability dose-response, H1819; format: cell-based, human; conditions: Homo sapiens, NCI-H1819, Tables 3 and 4; read-out: IC50 (uM) vs indicated non-small cell lung cancer cell line H1819
Outline: (§1)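 Cells plated at 15% confluence in RPMI-1640 with 5% FBS and 2 mM L-glutamine, treated with compound in a 12-point, 3-fold dilution series from 50 micromolar, in duplicate. ATP measured by Cell Titer Glo after 4 days; IC50 taken from the dose-response curve.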

Point of comparison: COc1ccc2nc(NC(=O)c3ccccc3)sc2c1 [SW202743], IC50 19.8 µM. Against it:
- COC(=O)c1ccc(C(=O)Nc2nc3cc(N)ccc3s2)cc1 [SW004400] — 2.8-fold higher, 54.6 µM
- COc1ccc2nc(NC(=O)c3ccc(F)cc3)sc2c1 [SW008027] — 3.4-fold higher, 67.3 µM
- O=C(O)c1sc2ccccc2c1Cl [SW138238] — 59-fold higher, 1170 µM
- COc1ccc2nc(NS(=O)(=O)c3ccc([N+](=O)[O-])cc3)sc2c1 [SW166933] — 2.8-fold higher, 55.2 µM
- COc1ccc(C(=O)Nc2nc3cc(N)ccc3s2)cc1 [SW202739] — 6.7-fold higher, 132 µM
- Cc1cc2sc(N)nc2cc1[N+](=O)[O-] [SW202740] — 4.2-fold higher, 82.5 µM
- Nc1ccc2sc(NC(=O)c3ccccc3)nc2c1 [SW202741] — 1.7-fold lower, 11.9 µM
- COc1ccc2nc(NC(=O)c3cccc(C)c3)sc2c1 [SW202744] — 2.7-fold higher, 53.5 µM
- COc1ccc(C(=O)Nc2nc3ccc(OC)cc3s2)cc1 [SW202745] — 3.2-fold higher, 64.3 µM
- COc1cccc(C(=O)Nc2nc3ccc(OC)cc3s2)c1 [SW202747] — within 1.5-fold, 20.5 µM
- COc1ccc2nc(NC(=O)Cc3ccccc3)sc2c1 [SW202749] — 2.9-fold higher, 57.6 µM
- COc1ccc2nc(NS(=O)(=O)c3ccccc3)sc2c1 [SW202750] — 7.3-fold higher, 144 µM
- COc1ccc2nc(NC(=O)c3ccc([N+](=O)[O-])o3)sc2c1 [SW202753] — within 1.5-fold, 18.2 µM
- O=S(=O)(Nc1nc2ccccc2s1)c1ccc(C(F)(F)F)cc1 [SW202754] — 1.5-fold higher, 30.2 µM
- Cc1cccc(C(=O)Nc2nc3ccccc3s2)c1 [SW202755] — 2.4-fold higher, 47.8 µM

system: HBEC30KT; test: Cell viability (ATP, Cell Titer Glo, 4 days), HBEC30KT; format: cell-based, human; conditions: Homo sapiens, Tables 3 and 4; read-out: HBEC30KT IC50
Method: (§2) FIG. 6A. […] Cell viability is plotted vs. compound concentration. Compound was added to cells plated at 15% confluence in 96-well plates in RPMI-1640 media supplemented with 5% Fetal Bovine Serum and 2 mM L-Glutamine. After 4 days of incubation, ATP levels were measured using Cell Titer Glo (Promega). Data are presented as the average of 2 replicates ±SEM.
(§3) Selectivity may be measured by the half maximal inhibitory concentration (IC50), which, as used herein, is a measure of the effectiveness of a compound in killing cells. This quantitative measure indicates how much of a particular compound is needed to kill a particular cell population by half (e.g., as indicated by the amount of ATP). […] The IC50 can be determined by constructing a dose-response curve. The lower the IC50, the higher the potency, and the greater the difference between IC50 values for different cell lines (e.g., sensitive lines vs. insensitive lines, and sensitive lines vs. normal lines) the greater the selectivity. […]

Point of comparison: O=C(O)c1sc2ccccc2c1Cl [SW138238], IC50 4950 µM. Against it:
- COC(=O)c1ccc(C(=O)Nc2nc3cc(N)ccc3s2)cc1 [SW004400] — 67-fold lower, 74.3 µM
- COc1ccc2nc(NC(=O)c3ccc(F)cc3)sc2c1 [SW008027] — 150-fold lower, 32.2 µM
- O=C(Nc1ccc(NC(=O)c2sc3ccccc3c2Cl)cc1)c1ccco1 [SW163400] — 71-fold lower, 69.3 µM
- COc1ccc2nc(NS(=O)(=O)c3ccc([N+](=O)[O-])cc3)sc2c1 [SW166933] — the same, 4950 µM
- COc1ccc(C(=O)Nc2nc3cc(N)ccc3s2)cc1 [SW202739] — 20-fold lower, 250 µM
- Cc1cc2sc(N)nc2cc1[N+](=O)[O-] [SW202740] — 38-fold lower, 129 µM
- Nc1ccc2sc(NC(=O)c3ccccc3)nc2c1 [SW202741] — 380-fold lower, 13 µM
- COc1ccc2nc(NC(=O)c3ccccc3)sc2c1 [SW202743] — 220-fold lower, 22.3 µM
- COc1ccc2nc(NC(=O)c3cccc(C)c3)sc2c1 [SW202744] — 140-fold lower, 36.2 µM
- COc1ccc(C(=O)Nc2nc3ccc(OC)cc3s2)cc1 [SW202745] — 15-fold lower, 336 µM
- COc1cccc(C(=O)Nc2nc3ccc(OC)cc3s2)c1 [SW202747] — 170-fold lower, 29.5 µM
- COc1ccc2nc(NC(=O)Cc3ccccc3)sc2c1 [SW202749] — 21-fold lower, 234 µM
- COc1ccc2nc(NS(=O)(=O)c3ccccc3)sc2c1 [SW202750] — 39-fold lower, 127 µM
- COc1ccc2nc(NC(=O)c3ccc([N+](=O)[O-])o3)sc2c1 [SW202753] — 250-fold lower, 20 µM
- O=S(=O)(Nc1nc2ccccc2s1)c1ccc(C(F)(F)F)cc1 [SW202754] — 25-fold lower, 198 µM
- Cc1cccc(C(=O)Nc2nc3ccccc3s2)c1 [SW202755] — 47-fold lower, 106 µM
- CCOC(=O)c1c(NC(=O)c2ccccc2)sc2c1CCCC2 [SW202858-1] — 100-fold lower, 48.8 µM

system: H2009; test: Cell viability dose-response, H2009; format: cell-based, human; conditions: Homo sapiens, NCI-H2009; Tables 3 and 4; read-out: IC50 (uM) vs indicated non-small cell lung cancer cell line H2009
Outline: (§4)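 Cells were plated at 15% confluence in RPMI-1640 with 5% FBS and 2 mM L-glutamine, then exposed to compound for 4 days. Viability was read as cellular ATP by CellTiter-Glo luminescence. Values are means of 2 replicates ±SEM, and IC50 comes from the dose-response curve.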

Point of comparison: Cc1cc2sc(N)nc2cc1[N+](=O)[O-] [SW202740], IC50 111 µM. Against it:
- COC(=O)c1ccc(C(=O)Nc2nc3cc(N)ccc3s2)cc1 [SW004400] — within 1.5-fold, 77.5 µM
- COc1ccc2nc(NC(=O)c3ccc(F)cc3)sc2c1 [SW008027] — 4.5-fold lower, 24.6 µM
- O=C(O)c1sc2ccccc2c1Cl [SW138238] — 1.6-fold higher, 179 µM
- COc1ccc(C(=O)Nc2nc3cc(N)ccc3s2)cc1 [SW202739] — within 1.5-fold, 137 µM
- Nc1ccc2sc(NC(=O)c3ccccc3)nc2c1 [SW202741] — 13-fold lower, 8.42 µM
- COc1ccc2nc(NC(=O)c3ccccc3)sc2c1 [SW202743] — 5.4-fold lower, 20.6 µM
- COc1ccc2nc(NC(=O)c3cccc(C)c3)sc2c1 [SW202744] — 4.5-fold lower, 24.8 µM
- COc1cccc(C(=O)Nc2nc3ccc(OC)cc3s2)c1 [SW202747] — 5.2-fold lower, 21.2 µM
- COc1ccc2nc(NC(=O)Cc3ccccc3)sc2c1 [SW202749] — within 1.5-fold, 75.2 µM
- COc1ccc2nc(NC(=O)c3ccc([N+](=O)[O-])o3)sc2c1 [SW202753] — 8.3-fold lower, 13.4 µM
- O=S(=O)(Nc1nc2ccccc2s1)c1ccc(C(F)(F)F)cc1 [SW202754] — 3.4-fold lower, 32.7 µM
- Cc1cccc(C(=O)Nc2nc3ccccc3s2)c1 [SW202755] — 2.1-fold lower, 53.9 µM
- CCOC(=O)c1c(NC(=O)c2ccccc2)sc2c1CCCC2 [SW202858-1] — 2.9-fold lower, 38.6 µM

system: HCC44; test: Cell viability dose-response, HCC44; format: cell-based, human; conditions: Homo sapiens, HCC44, Tables 3 and 4; read-out: IC50 (uM) vs indicated non-small cell lung cancer cell line HCC44
Outline: as §4

Point of comparison: O=C(Nc1ccc(NC(=O)c2sc3ccccc3c2Cl)cc1)c1ccco1 [SW163400], IC50 723 µM. Against it:
- COC(=O)c1ccc(C(=O)Nc2nc3ccc(N)cc3s2)cc1 [SW001296] — 2100-fold lower, 0.34 µM

system: H2122; test: Cell viability dose-response, H2122; format: cell-based, human; conditions: Homo sapiens, NCI-H2122, Tables 3 and 4; read-out: IC50 (uM) vs indicated non-small cell lung cancer cell line H2122
Outline: as §1

Point of comparison: COc1ccc2nc(NC(=O)c3cccc(C)c3)sc2c1 [SW202744], IC50 1.16 µM. Against it:
- COC(=O)c1ccc(C(=O)Nc2nc3ccc(N)cc3s2)cc1 [SW001296] — 30-fold higher, 35.1 µM
- COC(=O)c1ccc(C(=O)Nc2nc3cc(N)ccc3s2)cc1 [SW004400] — 260-fold higher, 297 µM
- COc1ccc2nc(NC(=O)c3ccc(F)cc3)sc2c1 [SW008027] — within 1.5-fold, 0.899 µM
- O=C(Nc1ccc(NC(=O)c2sc3ccccc3c2Cl)cc1)c1ccco1 [SW163400] — within 1.5-fold, 0.897 µM
- COc1ccc2nc(NS(=O)(=O)c3ccc([N+](=O)[O-])cc3)sc2c1 [SW166933] — 420-fold higher, 490 µM
- COc1ccc(C(=O)Nc2nc3cc(N)ccc3s2)cc1 [SW202739] — 98-fold higher, 114 µM
- Nc1ccc2sc(NC(=O)c3ccccc3)nc2c1 [SW202741] — 7-fold higher, 8.13 µM
- COc1ccc2nc(NC(=O)c3ccccc3)sc2c1 [SW202743] — 2.2-fold lower, 0.538 µM
- COc1ccc(C(=O)Nc2nc3ccc(OC)cc3s2)cc1 [SW202745] — within 1.5-fold, 1.09 µM
- COc1cccc(C(=O)Nc2nc3ccc(OC)cc3s2)c1 [SW202747] — 3.8-fold lower, 0.306 µM
- COc1ccc2nc(NC(=O)Cc3ccccc3)sc2c1 [SW202749] — 52-fold higher, 60.4 µM
- COc1ccc2nc(NC(=O)c3ccc([N+](=O)[O-])o3)sc2c1 [SW202753] — 3.8-fold higher, 4.36 µM
- O=S(=O)(Nc1nc2ccccc2s1)c1ccc(C(F)(F)F)cc1 [SW202754] — 31-fold higher, 35.4 µM
- Cc1cccc(C(=O)Nc2nc3ccccc3s2)c1 [SW202755] — 1.6-fold lower, 0.734 µM
- CCOC(=O)c1c(NC(=O)c2ccccc2)sc2c1CCCC2 [SW202858-1] — 2.3-fold higher, 2.69 µM

system: H460; test: Cell viability dose-response, H460; format: cell-based; conditions: Homo sapiens, NCI-H460; Tables 3 and 4; read-out: IC50 (uM) vs indicated non-small cell lung cancer cell line H460
Method: as §2, §3
(§5) With this information, we synthesized and tested a series of small molecules derived in conception from the oxalamide and chromone scaffold including N-acyl ureas, as shown in Tables 6-8. Each compound was tested in a 12-point dose-response study starting at 50 micromolar and decreasing in 3-fold increments to sub-nanomolar concentrations, in duplicate. Additionally, one or more additional cell line was tested in the same way.

In the case of COC(=O)c1ccc(C(=O)Nc2nc3ccc(N)cc3s2)cc1 [SW001296], the IC50 is reported as 4.46 µM.

system: H2073; test: Cell viability dose-response, H2073; format: cell-based, human; conditions: Homo sapiens, NCI-H2073, Tables 3 and 4; read-out: IC50 (uM) vs indicated non-small cell lung cancer cell line H2073
Method: as §2, §3, §5

Point of comparison: Nc1ccc2sc(NC(=O)c3ccccc3)nc2c1 [SW202741], IC50 9.79 µM. Against it:
- COC(=O)c1ccc(C(=O)Nc2nc3cc(N)ccc3s2)cc1 [SW004400] — 19-fold higher, 182 µM
- COc1ccc2nc(NC(=O)c3ccc(F)cc3)sc2c1 [SW008027] — 1.9-fold lower, 5.1 µM
- COc1ccc2nc(NS(=O)(=O)c3ccc([N+](=O)[O-])cc3)sc2c1 [SW166933] — 5.7-fold higher, 55.4 µM
- COc1ccc(C(=O)Nc2nc3cc(N)ccc3s2)cc1 [SW202739] — 13-fold higher, 126 µM
- Cc1cc2sc(N)nc2cc1[N+](=O)[O-] [SW202740] — 12-fold higher, 114 µM
- COc1ccc2nc(NC(=O)c3ccccc3)sc2c1 [SW202743] — within 1.5-fold, 7.04 µM
- COc1ccc2nc(NC(=O)c3cccc(C)c3)sc2c1 [SW202744] — 2.6-fold higher, 25.6 µM
- COc1ccc(C(=O)Nc2nc3ccc(OC)cc3s2)cc1 [SW202745] — 4.6-fold lower, 2.12 µM
- COc1cccc(C(=O)Nc2nc3ccc(OC)cc3s2)c1 [SW202747] — within 1.5-fold, 10.3 µM
- COc1ccc2nc(NC(=O)Cc3ccccc3)sc2c1 [SW202749] — 7.2-fold higher, 70.4 µM
- COc1ccc2nc(NS(=O)(=O)c3ccccc3)sc2c1 [SW202750] — 10-fold higher, 97.6 µM
- COc1ccc2nc(NC(=O)c3ccc([N+](=O)[O-])o3)sc2c1 [SW202753] — 1.6-fold lower, 6.25 µM
- O=S(=O)(Nc1nc2ccccc2s1)c1ccc(C(F)(F)F)cc1 [SW202754] — 2.5-fold higher, 24.8 µM
- Cc1cccc(C(=O)Nc2nc3ccccc3s2)c1 [SW202755] — 2.6-fold higher, 25.1 µM

same assay, conditions: Tables 3 and 4; read-out: IC50 (uM) vs indicated non-small cell lung cancer cell line H2073

For COC(=O)c1ccc(C(=O)Nc2nc3ccc(N)cc3s2)cc1 [SW001296], the IC50 was 3.72 µM.
